The source of these data is patent publication US20180110754A1, “CENICRIVIROC FOR THE TREATMENT OF FIBROSIS” (Tobira Therapeutics, Inc., priority 2015, published 2018).

A word on the Emax: it is the size of the effect at its maximum, as opposed to the concentration needed.

Data set [1] has as its system HIV-1. In words: Ex vivo intracellular HIV DNA qPCR in PBMCs of Study 202 participants. Set-up: species or system human. As to conditions: EFV 600 mg, week 24. (In general: Real-time PCR tracks product formation cycle by cycle.)
Method: Intracellular DNA qPCR. Total DNA was extracted, quantified, and stored at −80 C.
The Mann-Whitney test was used to analyze in vitro intracellular HIV DNA levels for all three treatment groups. All data were analyzed using Prism 5 software.
In data set [2] the test system is thioacetamide (TAA)-induced hepatic fibrosis. Nature of the data set: Rat model of thioacetamide-induced liver fibrosis and cirrhosis. Format: in vivo, Sprague-Dawley rats. As to conditions: for Reduction of fibrosis (collagen morphometry): weeks 0-8. The protocol: Fibrosis was induced in male Sprague-Dawley rats by intraperitoneal administration of TAA 150 mg/kg 3 times/week for 8 weeks. […] Biochemical, gene expression and histologic evaluations of the liver were conducted.

A further data set concerns the target CCR1 (Homo sapiens, UniProt P32246). Nature of the data set: Inhibition of ligand binding to CCR1.
Data set [3] concerns HIV-1. In words: Study 201: pharmacokinetic/pharmacodynamic Emax model. The settings on record: for Emax: read-out: Percent of the maximum inhibitory effect at average Css (Emax model). Format: in vivo, human. The text has this: Drug response was characterized using the following maximum effect (Emax) model:
where E is effect, E0 is the baseline effect (fixed to 0), Imax is the maximum inhibition, C denotes the PK variable (AUC0-24, Cmax, or steady-state concentration [Css]), IC50 is the value of the PK variable which corresponds to 50% of the maximum inhibition and γ is the shape parameter which describes the degree of sigmoidicity.

The next data set deals with CCR4 (Homo sapiens, UniProt P51679). In words: Inhibition of ligand binding to CCR4.
A short description of data set [4]: Tissue distribution in rodents. Format: in vivo.
A short description of data set [5]: Study 201: safety and tolerability. The class given is in vivo, human. The protocol: Participants were required to be antiretroviral treatment-experienced, CCR5 antagonist-naive, with HIV-1 RNA levels of at least 5000 copies/mL and CD4+ cell counts of at least 250 cells/mm^3 was performed.
A short description of the next data set: Mouse toxicity studies. The settings on record: doses up to 2000 mg/kg/day, no surgical procedures. Format: in vivo.
For data set [6], the system named is unilateral ureter occlusion (UUO) renal fibrosis. In words: Mouse UUO model of renal fibrosis. Format: in vivo, CD-1 mice. As for the experimental part:
Test animals were allocated to weight-matched treatment groups on the day prior to the surgical procedure (Day-1). Male CD-1 mice (N=51; age, 7-8 weeks) underwent either sham surgery or total ligation of the right ureter, i.e. UUO, via aseptic laparotomy (FIG. 12). […] Another group received the anti-transforming growth factor TGF-β1 antibody, compound 1D11 (positive control) at 3 mg/kg/day from Days-1 to 4, injected intraperitoneally once daily, and vehicle control from Days 0 to 5. […] On Day 5, animals were anaesthetized, blood and tissues were collected prior to sacrifice.
Study endpoints included: a) body and kidney weights; b) fibrosis in obstructed kidney evaluated via histological quantitative image analysis of picrosirius red staining (ten images/depth/kidney obtained and assessed in a blinded fashion using light microscopy [at 200×] to enable sampling of 60-70% of the renal cortical area) and quantified by a composite Collagen Volume Fraction (CVF [% total area imaged]) score expressed as the average positive stain across three anatomically distinct ([…] apart) tissue sections, or depths, from the obstructed kidney; c) hydroxyproline content of frozen renal cortical tissue biopsies as assessed by biochemical analyses; d) mRNA expression of profibrotic and inflammatory biomarkers (including MCP-1, Collagen 1a1, Collagen 3a1, TGF-β1, Fibronectin-1, α-smooth muscle actin (α-SMA) and connective tissue growth factor-1 (CTGF-1); assessed via Luminex® (Life Technologies™, Carlsbad, Calif., USA) assay with relative expression normalised to HPRT (hypoxanthine phosphoribosyltransferase).
Data are expressed as mean±standard error of mean (SEM). Statistical analyses were performed using GraphPad Prism® (GraphPad Software, Inc., San Diego, Calif., USA). Treatment differences between sham-surgery+vehiclecontrol and UUO+vehicle-control groups, and between UUO+vehicle-control and UUO+compound-1D11 (positive control) groups, were analysed by unpaired t-Test. Treatment differences between UUO+vehicle-control and CVC-dose groups were analysed by one-way ANOVA (analysis of variance) with Dunnett's test (post-hoc).

For data set [7] the following is noted: known short half-life; cited from earlier work.

Read-outs that look alike come from different tables or passages of the source.

Chain of CCR4 (P51679 whole entry): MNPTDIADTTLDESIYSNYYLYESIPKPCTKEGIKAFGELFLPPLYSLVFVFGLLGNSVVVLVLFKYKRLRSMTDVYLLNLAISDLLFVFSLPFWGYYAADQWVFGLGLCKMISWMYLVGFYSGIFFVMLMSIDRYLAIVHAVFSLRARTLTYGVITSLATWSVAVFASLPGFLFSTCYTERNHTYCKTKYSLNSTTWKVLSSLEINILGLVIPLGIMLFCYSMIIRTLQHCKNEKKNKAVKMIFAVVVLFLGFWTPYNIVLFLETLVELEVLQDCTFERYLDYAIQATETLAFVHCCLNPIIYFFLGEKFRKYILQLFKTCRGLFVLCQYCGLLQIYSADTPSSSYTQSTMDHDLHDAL
Chain of CCR1 (P32246 whole entry): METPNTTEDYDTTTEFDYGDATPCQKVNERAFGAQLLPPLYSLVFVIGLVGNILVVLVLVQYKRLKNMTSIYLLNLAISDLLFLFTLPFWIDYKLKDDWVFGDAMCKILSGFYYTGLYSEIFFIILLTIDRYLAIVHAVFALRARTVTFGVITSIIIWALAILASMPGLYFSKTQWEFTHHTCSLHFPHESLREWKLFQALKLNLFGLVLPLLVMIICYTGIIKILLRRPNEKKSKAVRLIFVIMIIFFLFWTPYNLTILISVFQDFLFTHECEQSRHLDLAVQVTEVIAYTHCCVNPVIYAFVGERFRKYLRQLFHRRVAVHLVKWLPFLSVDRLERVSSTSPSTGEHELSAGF

As to `O=C1Nc2ccc(Cl)cc2[C@@](C#CC2CC2)(C(F)(F)F)O1` [EFV, efavirenz, reference compound], in the data set on HIV-1 [1], the “Full-length intracellular HIV DNA, mean fold-change from baseline” value is recorded as 0.825 fold and the “Strong-stop intracellular HIV DNA, mean fold-change from baseline” value worked out at 1.01 fold.

Turning to `CCCCOCCOc1ccc(-c2ccc3c(c2)/C=C(/C(=O)Nc2ccc([S@@+]([O-])Cc4cncn4CCC)cc2)CCCN3CC(C)C)cc1` [CVC, (S)-8-[4-(2-Butoxyethoxy)phenyl]-1-isobutyl-N-(4-{[(1-propyl-1H-imidazol-5-yl)methyl]sulfinyl}phenyl)-1,2,3,4-tetrahydro-1-benzazocine-5-carboxamide], the results for the “Reduction of collagen type 1 protein levels” value in data set [2] (Group 1a: 30 mg/kg/day) and in [2] (Group 1b: 100 mg/kg/day) were 30% and 12%, respectively. Moreover, the “Reduction of α-SMA” value was determined as 17% in data set [2] (Group 1a: 30 mg/kg/day) and 22% in [2] (Group 1b: 100 mg/kg/day). Further, the figures for the “Reduction of fibrosis (collagen morphometry)” value in data set [2] (Group 1a: 30 mg/kg/day concurrently with TAA) and in data set [2] (Group 1b: 100 mg/kg/day concurrently with TAA) were 49% and 38%, respectively. The same molecule came in with a Reduction in collagen in data set [2] (Group 2a: 30 mg/kg/day, weeks 4-8 (emerging fibrosis)) of 36%. Also, in [2] (Group 3: weeks 8-12, cirrhosis present), the “Effect on fibrogenic gene expression or fibrosis” value is on record as “no significant effect”. For the same molecule, at CCR1, the “Inhibition of ligand binding to CCR1” value was “did not inhibit”. In addition, the Emax was 54.9% with HIV-1 [3] (Human immunodeficiency virus 1, 25 mg); 79.8% in the data set on HIV-1 [3] (Human immunodeficiency virus 1, 50 mg); 85.9% with HIV-1 [3] (Human immunodeficiency virus 1, 75 mg); 95.9% with HIV-1 [3] (Human immunodeficiency virus 1, 150 mg). The “Emax in the PK/PD model (HIV-1 RNA)” value with HIV-1 [3] (in vivo) is −1.43 log10 copies/mL. For the same molecule, on CCR4, the “Inhibition of ligand binding to CCR4” value is given as “only weakly inhibited”. In [4], the Tissue distribution result is “high distribution in the liver, mesenteric lymph node, and intestine”. The “Subjects with ALT and/or AST elevations (all Grade 1)” value is 2 subjects in data set [5] (25 mg), 2 subjects in data set [5] (50 mg), 1 subject in data set [5] (100 mg) and 1 subject in data set [5] (150 mg). The Tolerability result in data set [5] (25-150 mg once daily, 10 days) is given as “generally well tolerated”; in the data set “Mouse toxicity studies” it was “well tolerated”. In addition, the “Treatment-emergent AE: diarrhea” value in data set [5] (Study 201, all subjects) came to 16.7%. Further, in data set [5] (Study 201, all subjects), the “Treatment-emergent AE: fatigue” value is recorded as 11.0%. Moreover, the “Treatment-emergent AE: headache” value in data set [5] (Study 201, all subjects) was 14.8%. Also, in data set [5] (Study 201, all subjects), the “Treatment-emergent AE: nausea” value is recorded as 18.5%. The “Grade 2-4 elevations in ALT or AST” value in data set [5] (during the study) was “No Grade 2-4 elevations”. For the same molecule, the “Effect on body weight” value in data set [6] (CVC 7 mg/kg/day, Day 5) is “no effect on body weight”. The “Outcome of the 100 mg/kg/day group” value in data set [6] (CVC 100 mg/kg/day, N=9, after UUO surgery) is “terminated early due to moribundity”. Also, in data set [6] (CVC 7 and 20 mg/kg/day), the “Effect on UUO-induced increase in obstructed kidney hydroxyproline content” value is “Neither dose of CVC tested affected UUO-induced increases”. Also, the “Effect on UUO-induced Collagen 1a1, Collagen 3a1, TGF-β1 and Fibronectin-1 mRNA expression” value in data set [6] (obstructed kidney cortex) is given as “did not reach statistical significance”. In addition, the “Effect on UUO-induced MCP-1, α-SMA and CTGF-1 mRNA expression” value in data set [6] (obstructed kidney cortex) is “did not have significant effects”. The Half-life in mice in [7] is around 2 h.
